Results from patent publication US12263140B1, “Methods of reducing the production of greenhouse gases from animals” (AGRICULTURAL SCIENCES LIMITED, priority 2023, dated 2025).

Key:
[1] = test system: cow rumen fluid; assay: Fermentation of cow rumen fluid and dried grass (hay) in adjustable pressure fermenter; assay type: cell-based; parameters: reduction of total gas volume compared to controls, average / reduction of total gas volume compared to controls, minimum / methane emission reduction / methane emission reduction, peak / CO2 volume produced by the fermentation, reduction compared to control samples: concentration or dose not given beside the values; settings: for inhibition of vitamin K1 effects on reducing gas production by grass: Example 2
Description: The aerial parts of the plants were harvested and allowed to dry for a number of days, the number depend on the weather. When air dry the material was steeped in 30% ethanol for one month or more (up to 3 months). It was important to keep the steep in the dark and to have the steep vessels filled and cover tightly to prevent the entry of air. […] Samples of rumen fluid were collected from either slaughtered cows immediately after slaughter. Samples of rumen fluid were collected from the rumen of these cows by cutting the rumen wall using a sterilised knife and allowing the fluid that exuded from the cut to be collected in a sterilised kidney bowl and held in a Dewar flask at body temperature. The rumen fluid was used within one hour of slaughter. It was passed through cheese cloth or similar to filter out the liquid portion for use in this and further trials. […] The rumen fluid was kept in the dark at a temperature of 36° C. at all times during transport and storage.
The collected rumen fluid samples were mixed with dried grass (hay) to form control samples. […] The prepared samples were then added to a trial fermenter and fermented over time to determine the total amount of gas produced during the fermentation time period along with the CO2 produced and the methane (CH4) production during the trial time period. The tubes were inspected periodically until fermentation stopped. The samples were analysed using gas chromatography (GC) with a permanent gas analysis column, in the order they were made.
The trial fermenter used is an adjustable pressure fermenter system consisting of two arms (one closed and one open) of a manometric setup fastened to a backplate (not shown).
Fermentation tube sizes varied from 50 ml to 250 ml. The closed arm was fixed to the supports and was closed at its top end by means of a removable stopper that has a small rubber or synthetic material septum embedded in the centre.
Samples may be taken from the fermenter using a gas tight microlitre syringe. In use, according to one or more embodiments, the needle of the syringe is able to be inserted through the septum to take samples of fermenting fluid or gas for analysis by gas chromatography.
The arms were free to move up or down so that the pressure in the closed arm could be brought to atmospheric pressure, which occurred when the fluid levels in both arms were at equal heights.
For all early trials lab scale (50 ml) fermenters were used. Up to 20 fermenters could be used at the same time thus giving more reliable replications for statistical analysis. The tubes were held in a water bath held at a temperature of 36° C. with light excluded by a light-proof cover on the bath. The tubes were gently agitated during the fermentation.
The synthetic material was produced by the oxidation of 2-methylnaphthalene to 2-methyl-1,4-naphthoquinone with chromium trioxide in sulphuric and acetic acids. Trials were completed using the above trial fermenter and method using rumen fluid as described in Example 1.
To investigate this, fermentations were completed using the apparatus described in Example 1 and FIG. 1 using samples of fresh cow rumen fluid and dried grass, according to one or more embodiments.

[2] = test system: rumen fluid from live fistulated cows; assay: Fermentation of dried grass with rumen fluid from treated live fistulated cows, 12 hours (Example 11); assay type: in vivo, cow; settings: 36° C., dark, 1 g dried grass
Description: In this trial, samples of rumen fluid from live fistulated cows were collected, passed through butter muslin (cheese cloth) and the fluid transferred to pre-warmed Thermos™ flasks.
Six fermentation vessels had 1 g of dried grass added to each.
Three vessels, the Experimentals, were filled with the rumen fluid from the treated cows. The other three vessels, the controls, were filled with rumen fluid from the untreated cows. All vessels were gently incubated at 36° C. in the dark for 12 hours.

[3] = test system: methanogens; assay: Fermentation of methyl alcohol in rumen fluid; assay type: cell-based, cow; settings: MeOH added to rumen fluid with or without vitamin K1
Description: The MeOH was added in equal volumes to tubes containing rumen fluid with (E) or without (C) the addition of vitamin K1. The results are shown as symbols on the Y-axis in FIG. 13, according to one or more embodiments.

[4] = test system: pig faeces; assay: Fermentation of diluted pig faeces; assay type: cell-based; settings: 1% steep fluid
Description: Fresh pig faeces samples were mixed with an equal volume of distilled water.
Six 50 ml fermentation tubes were used in the fermentation experiment.
The controls were […] fermentation tubes filled to the top with diluted pig faeces.
The fermentation tubes were gently agitated in a water bath held in the dark at 36° C.

[5] = test system: cow rumen fluid; assay: SIFT-MS analysis of gas from grass fermentations by cow rumen fluid; assay type: cell-based
Description: A SIFT-MS analyser was further used to confirm the above noted effects in terms of reductions in methane. A SIFT-MS device (see https://syft.com/sift-ms-technology/) is an advanced method for analysing mixtures of smaller volatile organic compounds.

CC1=C(C/C=C(\C)CCC[C@H](C)CCC[C@H](C)CCCC(C)C)C(=O)c2ccccc2C1=O [vitamin K1]
CO2 volume produced by the fermentation, reduction compared to control samples [1]: 83.4%
inhibition of vitamin K1 effects on reducing gas production by grass ([1]; grass fermented immediately after harvest): total
inhibition of vitamin K1 effects on reducing gas production by grass ([1]; older (3+ day old) grass): only a small inhibitory effect
gas volume produced ([1]; Example 9, Trial 4, vitamin K1 and sulphide both added): consistent with and even slightly higher than control
methane emission reduction ([1]; further trials): 66.7%
reduction of total gas volume compared to controls, average ([1]; further trials): 80.2%
reduction of total gas volume compared to controls, maximum ([1]; further trials): 94.5%
reduction of total gas volume compared to controls, minimum ([1]; further trials): 75.9%
methane emission reduction, peak ([1]; further trials, under specific conditions): 91%
CO2, of controls [2]: 39.35%
methane formation, of controls [2]: 25.6%
total gas volume, of controls [2]: 25.6%
fermentation of MeOH by methanogens [3]: strongly inhibits
emission of methane gas from faeces [4]: completely inhibited
reduction in methane compared with controls [5]: 83.6%
reduction in total volume compared with controls [5]: 56.8%
